Where two headings read alike, the source gives them in different places.
Key:
[1] = biological target: T1, mu-type opioid receptor (Rattus norvegicus, UniProt P33535); experiment: inhibition of specific [^3 H] DAGO binding to rat forebrain membranes
T1 construct: using rat forebrain membranes; from tissue; host or cells: rat forebrain membranes
Experimental: (§1) The interaction of some of the novel compounds with mu and delta-type opioid receptors present in brain membranes was examined in vitro. […] DAGO (mu-type receptor) or [^3 H] DADLE (delta-type receptor) was determined using rat forebrain membranes. Computer assisted analysis (EBDA) was used to determine apparent Ki values for the various compounds.
(§2) Values represent the MEAN±S.E.M. of the Ki(nM) for each compound to inhibit specific binding of the indicated ligand to rat brain membranes. The values are from two-five separate experiments and were calculated according to the method of Cheng and Prusoff [Biochem. Pharmacol. 1973, 22, 3099-3108] together with the EBDA Program. Numbers in parentheses are the mean Hill coefficients for each compound to inhibit ligand binding.
as §2, with “two.div.seven” for “two-five”, “Prusoff” for “Prusoff [Biochem. Pharmacol. 1973, 22, 3099-3108]”, “program.” for “Program.”, “binding. N.D.=not determined” for “binding.”
(§3) The interaction of some of the novel compounds with mu, delta and kappa - type opioid receptors present in brain membranes was examined in vitro. […] DAGO (mu-type receptor), or [^3 H] DADLE (Delta-type receptor) using rat forebrain membranes and [^3 H] EKC (kappa-type receptor) using guiniea pig cerebellum membrane was determined. Computer assisted analysis (EBDA) was used to determine apparent Ki values for the various compounds.
(§4) The values represent the MEAN±S.E.M. of the Ki(nM) for each compound to inhibit specific binding of the indicated ligand. Each value represents the mean of three individual experiments performed on separate occasions.

[2] = system: oxymorphonazine (OMZ)-induced analgesia; experiment: antagonism of oxymorphonazine (OMZ)-induced analgesia (tail flick) in rats; format: in vivo, rat; details: S.C.; for ED50 / ED100: Rattus norvegicus, sc, Table 8; for ED50: read-out: ED 50, oxymorphonazine antagonism; for ED100: read-out: ED 100, oxymorphonazine antagonism; for Percent Antagonism at 1 Hr / Percent Antagonism at 1.5 Hr / Percent Antagonism at 2 Hr / Percent Antagonism at 3 Hr / Percent Antagonism at 4 Hr / Percent Antagonism at 6 Hr / Percent Antagonism at 8 Hr: dose tested (mg/kg): Naltrexone 0.5, Nalmefene 1.0, XI 10.0, XII 2.5, XIII 0.5, XIV 5.0
Experimental: The compound of Example XII was evaluated for its potency and duration in the antagonism of oxymorphonazine (OMZ)-induced analgesia. […] Data represent the mean SEM of 4-5 animals per group.
(Cowan A. Trendsin Pharmacology Science, 7:69-72, 1986) With this test the intracerebroventricular administration of bombesin produces a characteristic scratching response.

[3] = biological target: delta-type opioid receptor (Rattus norvegicus, UniProt P33533); experiment: inhibition of specific [^3 H] DADLE binding to rat forebrain membranes
Experimental: as §1, §2
as §2, with “two.div.seven” for “two-five”, “Prusoff” for “Prusoff [Biochem. Pharmacol. 1973, 22, 3099-3108]”, “program.” for “Program.”, “binding. N.D.=not determined” for “binding.”
as §3, §4

[4] = biological target: T2, kappa-type opioid receptor (Cavia porcellus, UniProt P41144); experiment: inhibition of specific [^3 H] EKC binding to guinea pig cerebellum membrane
T2 construct: using guiniea pig cerebellum membrane; from tissue; host or cells: guinea pig cerebellum membranes
Experimental: as §3, §4

[5] = system: tail flick response; experiment: radiant heat tail flick analgesia in rats; format: in vivo, rat
Experimental: The analgesic properties of the compounds prepared in accordance with Examples III and IV were evaluated in rats using the radiant heat and tail flick paradigm. […] Flick latencies in FIGS. 11-13 were determined at 30 minute intervals through 3.5 h and the data was expressed as a percentage of the maximum possible effect (% MPE). A 15 sec. cut-off latency was used to minimize tissue damage. The values shown are the mean values for 6 rats.
A 15 sec. cut-off latency was used to prevent tissue damage.
The analgesic properties of compounds XXII and XXIII were evaluated in rats using the writhing assay and tail flick paradigm. […] The writhing assay which uses a chemical stimulus to produce pain, is believed to be more sensitive to kappa agonist activity than other measures of analgesia which uses a heat stimulus (Dykstra, L.A. Behavioral Pharmacology: The Current Status, N.Y.: Allan R. Liss. Inc. 1985).

[6] = (Ki) nM, μ receptor (Rat Forebrain), Table 6, [^3 H] DAGO, mean of three experiments
[7] = Ki, inhibition of specific [^3 H] DAGO binding, Tables 1 and 2, rat brain membranes, MEAN±S.E.M.
[8] = read-out: (Ki) nM, δ receptor (Rat Forebrain), Table 6, [^3 H] DADLE, mean of three experiments
[9] = read-out: Ki, inhibition of specific [^3 H] DADLE binding, Tables 1 and 2, rat brain membranes, MEAN±S.E.M.

T1 sequence (P33535 whole entry): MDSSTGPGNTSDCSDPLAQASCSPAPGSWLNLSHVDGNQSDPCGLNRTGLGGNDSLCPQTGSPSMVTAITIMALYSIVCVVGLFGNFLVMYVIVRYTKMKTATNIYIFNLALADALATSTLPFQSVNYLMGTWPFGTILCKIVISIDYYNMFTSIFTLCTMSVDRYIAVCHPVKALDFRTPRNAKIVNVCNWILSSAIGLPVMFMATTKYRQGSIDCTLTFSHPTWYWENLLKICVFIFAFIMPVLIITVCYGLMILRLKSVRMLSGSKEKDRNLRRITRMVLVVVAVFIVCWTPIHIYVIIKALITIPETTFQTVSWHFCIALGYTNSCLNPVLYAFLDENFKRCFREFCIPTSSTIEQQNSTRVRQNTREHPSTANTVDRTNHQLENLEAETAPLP
T2 sequence (P41144 whole entry): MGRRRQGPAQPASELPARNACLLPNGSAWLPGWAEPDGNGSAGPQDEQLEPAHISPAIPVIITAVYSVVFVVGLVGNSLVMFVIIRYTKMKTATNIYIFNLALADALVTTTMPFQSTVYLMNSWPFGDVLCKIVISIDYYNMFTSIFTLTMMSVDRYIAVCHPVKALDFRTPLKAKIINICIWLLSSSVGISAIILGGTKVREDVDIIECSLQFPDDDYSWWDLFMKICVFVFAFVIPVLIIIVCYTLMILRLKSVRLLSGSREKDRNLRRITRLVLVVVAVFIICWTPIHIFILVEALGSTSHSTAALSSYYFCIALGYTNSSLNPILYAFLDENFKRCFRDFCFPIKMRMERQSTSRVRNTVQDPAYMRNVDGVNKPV
delta-type opioid receptor, sequence (P33533 whole entry): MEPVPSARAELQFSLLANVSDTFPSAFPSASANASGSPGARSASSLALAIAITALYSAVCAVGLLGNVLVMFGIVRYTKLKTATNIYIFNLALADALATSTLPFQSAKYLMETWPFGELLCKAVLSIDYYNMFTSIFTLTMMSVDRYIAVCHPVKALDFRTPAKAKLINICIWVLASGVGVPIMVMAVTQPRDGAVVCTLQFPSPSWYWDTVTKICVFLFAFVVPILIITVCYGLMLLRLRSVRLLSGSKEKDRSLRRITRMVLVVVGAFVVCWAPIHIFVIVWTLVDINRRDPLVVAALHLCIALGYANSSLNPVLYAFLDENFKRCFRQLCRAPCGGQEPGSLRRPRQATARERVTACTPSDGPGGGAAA

Compound `Oc1ccc2c3c1O[C@H]1C(=NOCc4ccccc4)CC[C@@]4(O)[C@@H](C2)N(CC2CC2)CC[C@]314` [Example XI, 6-Benzyloximino-17-cyclopropylmethyl-4, 5 α-epoxy-3, 14-dihydroxymorphinan] has a Ki [1, 6] of 0.55 nM, a Ki [1, 7] of 0.55 ± 0.12 nM and an ED50 [2] of 1.2 mg/kg. For the same compound, the ED100 [2] was 13 mg/kg, the “Percent Antagonism at 1 Hr” value [2] was 72% and the “Percent Antagonism at 1.5 Hr” value [2] was 86%. For the same compound, the “Percent Antagonism at 2 Hr” value [2] was 91%, the “Percent Antagonism at 3 Hr” value [2] was 93% and the “Percent Antagonism at 4 Hr” value [2] was 103%. The “Percent Antagonism at 6 Hr” value [2] was 122%, the “Percent Antagonism at 8 Hr” value [2] was 64% and the Ki [3, 8] was 0.87 nM. The Ki [3, 9] was 0.7 ± 0.22 nM.
In the case of `O=C1c2ccccc2C(=O)N1Cc1ccc(ON=C2CC[C@@]3(O)[C@H]4Cc5ccc(O)c6c5[C@@]3(CCN4CC3CC3)[C@H]2O6)cc1` [Example XXI, 6-[4-phthalimidomethylphenyl]oximino-17-cyclopropylmethyl-4,5 α-epoxy-3,14-dihydroxymorphinan], the Ki [1, 6] is reported as 7.35 nM, the Ki [3, 8] is reported as 2.57 nM and the Ki [4] is reported as 18 nM.
`Cc1cccc(ON=C2CC[C@@]3(O)[C@H]4Cc5ccc(O)c6c5[C@@]3(CCN4CC3CC3)[C@H]2O6)c1C` [Example XV, 6-[2,3-dimethylphenyl]oximino-17-cyclopropylmethyl-4,5 α-epoxy-3,14-dihydroxymorphinan] showed a Ki [1, 6] of 1.19 nM and a Ki [3, 8] of 1.23 nM.
With `ON=C1CC[C@@]2(O)[C@H]3Cc4ccc(O)c5c4[C@@]2(CCN3CC2CC2)[C@H]1O5` [Example IX, 6-Oximino-17-cyclopropylmethyl-4,5 α-epoxy-3, 14-dihydroxymorphinan] the Ki [1, 6] was 0.24 nM, the “mean Hill coefficient, [^3 H] DAGO binding” value ([1]; Tables 1 and 2, numbers in parentheses) was 0.81 and the Ki ([1]; Tables 1 and 2, rat brain membranes, MEAN±S.E.M., read-out: Ki, inhibition of specific [^3 H] DAGO binding) was 0.24 ± 0.03 nM. The “fold more potent to inhibit specific [^3 H]DAGO binding” value ([1]; than compound of Example X or XI, or naltrexone) was 3 fold, the Ki [3, 8] was 1.64 nM and the Ki [4] was 2.05 nM.
Compound `Oc1ccc2c3c1O[C@H]1C(=NOc4ccc(C(F)(F)F)cc4)CC[C@@]4(O)[C@@H](C2)N(CC2CC2)CC[C@]314` [Example XVII, 6-[4-trifluoromethylphenyl]oximino-17-cyclopropylmethyl-4,5 α-epoxy-3,14-dihydroxymorphinan] has a Ki [1, 6] of 26.4 nM and a Ki [3, 8] of 34.4 nM.
Compound `N=C(N)c1ccc(ON=C2CC[C@@]3(O)[C@H]4Cc5ccc(O)c6c5[C@@]3(CCN4CC3CC3)[C@H]2O6)cc1` [Example XX, 6-[4-iminoaminomethylphenyl]oximino-17-cyclopropylmethyl-4,5 α-epoxy-3,14-dihydroxymorphinan] has a Ki ([1]; read-out: (Ki) nM, μ receptor (Rat Forebrain), Table 6, [^3 H] DAGO, mean of three experiments) of 0.73 nM, a Ki [3, 8] of 1.67 nM and a Ki ([4]; read-out: (Ki) nM, κ receptor (GP Cerebellum), Table 6, [^3 H] EKC, mean of three experiments) of 0.64 nM.
`Oc1ccc2c3c1O[C@H]1C(=NOC4CCCCC4)CC[C@@]4(O)[C@@H](C2)N(CC2CC2)CC[C@]314` [Example XXV, 6-cyclohexyloximino-17-cyclopropylmethyl-4,5 α-epoxy-3,14-dihydroxymorphinan] showed a Ki [1, 6] of 1.1 nM, a Ki [3, 8] of 0.08 nM and a Ki [4] of 9.76 nM.
`Cc1ccc(ON=C2CC[C@@]3(O)[C@H]4Cc5ccc(O)c6c5[C@@]3(CCN4CC3CC3)[C@H]2O6)cc1C` [Example XIII, 6-[3,4-dimethylphenyl]oximino-17-cyclopropylmethyl-4,5α-epoxy-3,14-dihydroxymorphinan] showed a Ki [1, 6] of 1.64 nM, an ED50 [2] of 0.09 mg/kg and an ED100 [2] of 0.74 mg/kg. For the same compound, the “Percent Antagonism at 1 Hr” value [2] was 77%, the “Percent Antagonism at 1.5 Hr” value [2] was 72% and the “Percent Antagonism at 2 Hr” value [2] was 67%. The “Percent Antagonism at 3 Hr” value [2] was 79%, the “Percent Antagonism at 4 Hr” value [2] was 72% and the “Percent Antagonism at 6 Hr” value [2] was 71%. The “Percent Antagonism at 8 Hr” value [2] was 97% and the Ki [3, 8] was 2.69 nM.
Work on `Oc1ccc2c3c1O[C@H]1C(=NOc4ccccc4C(F)(F)F)CC[C@@]4(O)[C@@H](C2)N(CC2CC2)CC[C@]314` [XIX, 6-[2-trifluoromethylphenyl]oximino-17-cyclopropylmethyl-4,5 α-epoxy-3,14-dihydroxymorphinan] yielded a Ki [1, 6] of 3.77 nM and a Ki [3, 8] of 1.29 nM.
`NCc1ccc(ON=C2CC[C@@]3(O)[C@H]4Cc5ccc(O)c6c5[C@@]3(CCN4CC3CC3)[C@H]2O6)cc1` [Example XXIV, 6-[4-aminomethylphenyl]oximino-17-cyclopropylmethyl-4,5α-epoxy-3,14-dihydroxymorphinan] showed a Ki [1, 6] of 0.34 nM, a Ki [3, 8] of 1 nM and a Ki [4] of 0.71 nM.
Compound `CON=C1CC[C@@]2(O)[C@H]3Cc4ccc(O)c5c4[C@@]2(CCN3C)[C@H]1O5` [Example II, 6-Methyloximino-17-methyl-4,5 α-epoxy-3, 14-dihydroxymorphinan] has a Ki [1, 7] of 0.97 ± 0.1 nM and a Ki [3, 9] of 3.44 ± 0.83 nM.
`CON=C1CC[C@@]2(O)[C@H]3Cc4ccc(O)c5c4[C@@]2(CCN3CC2CC2)[C@H]1O5` [Example X, 6-Methyloximino-17-cyclopropylmethyl-4,5 α-epoxy-3, 14-dihydroxymorphinan] showed a Ki [1, 7] of 0.66 ± 0.06 nM and a Ki [3, 9] of 1.8 ± 0.22 nM.
With `Oc1ccc2c3c1O[C@H]1C(=NOC45CC6CC(CC(C6)C4)C5)CC[C@@]4(O)[C@@H](C2)N(CC2CC2)CC[C@]314` [Example XXVII, 6-[1-adamantyl]oximino-17-cyclopropylmethyl-4,5 α-epoxy-3,14-dihydroxymorphinan] the Ki [1, 6] was 5.39 nM, the Ki [3, 8] was 2.63 nM and the Ki [4] was 6.41 nM.
Work on `N#Cc1ccc(ON=C2CC[C@@]3(O)[C@H]4Cc5ccc(O)c6c5[C@@]3(CCN4CC3CC3)[C@H]2O6)cc1` [XVIII, 6-[4-cyanophenyl]oximino-17-cyclopropylmethyl-4,5α-epoxy-3,14-dihydroxymorphinan] yielded a Ki [1, 6] of 2.07 nM, a Ki [3, 8] of 1.64 nM and a Ki [4] of 12.9 nM.
In the case of `CN1CC[C@]23c4c5ccc(O)c4O[C@H]2[C@@H](O)C=C[C@H]3[C@H]1C5` [Morphine, morphine, reference compound], the “ED50, tail flick analgesia” value ([5]; S.C., 30 min) is reported as 4.91 µmol/kg, the “dose producing approximately equal analgesia” value ([5]; S.C., tail flick, through 3.5 hr) is reported as roughly 10.5 µmol/kg and the “ED50, Antagonism of the Tail-Flick Response in the Rat” value ([5]; Table 7) is reported as 2.60 mg/kg. For the same compound, the “antagonism of tail-flick response to heat” value ([5]; rat) was “effectively antagonized the tail-flick response to a heat stimulus in the rat”.
Work on `Oc1ccc2c3c1O[C@H]1C(=NOC4CCCc5ccccc54)CC[C@@]4(O)[C@@H](C2)N(CC2CC2)CC[C@]314` (stereo partly drawn) [Example XIV, 6-[1,2,3,4-tetrahydronaphth-1-yl]oximino-17-cyclopropylmethyl-4,5 α-epoxy-3,14-dihydroxymorphinan] yielded a Ki [1, 6] of 2.76 nM, an ED50 [2] of 0.02 mg/kg and an ED100 [2] of 6.73 mg/kg. For the same compound, the “Percent Antagonism at 1 Hr” value [2] was 80%, the “Percent Antagonism at 1.5 Hr” value [2] was 84% and the “Percent Antagonism at 2 Hr” value [2] was 82%. The “Percent Antagonism at 3 Hr” value [2] was 84%, the “Percent Antagonism at 4 Hr” value [2] was 83% and the “Percent Antagonism at 6 Hr” value [2] was 41%. The “Percent Antagonism at 8 Hr” value [2] was 20%, the Ki [3, 8] was 0.6 nM and the Ki [4] was 4.66 nM.
`Oc1ccc2c3c1O[C@H]1C(=NOC4CCCC4)CC[C@@]4(O)[C@@H](C2)N(CC2CC2)CC[C@]314` [Example XXVI, 6-cyclopentyloximino-17-cyclopropylmethyl-4,5 α-epoxy-3,14-dihydroxymorphinan] showed a Ki [1, 6] of 0.52 nM, a Ki [3, 8] of 0.04 nM and a Ki [4] of 7.94 nM.
`CC(C)(C)ON=C1CC[C@@]2(O)[C@H]3Cc4ccc(O)c5c4[C@@]2(CCN3CC2CC2)[C@H]1O5` [Example XVI] was tested, and the Ki [1, 6] was 1.01 nM, the Ki [3, 8] was 0.41 nM and the Ki [4] was 7.39 nM.

From patent publication US4889860A (Nova Pharmaceutical Corporation, priority 1987, dated 1989)
